Laboratory results taken from ChEMBL document CHEMBL4420076, “Amylin and calcitonin receptor agonist” (2017).
Peptide text beside a SMILES is read from it. * marks the point of attachment. C18 diacid = O=C(O)CCCCCCCCCCCCCCCCC(=O)*

How the values were obtained:
[1] = test system: Rattus norvegicus; assay: (§1) Reduction in body weight in Sprague-Dawley rat model of diet-induced obesity assessed as relative body weight at 0.1 mg/kg, sc dosed dosed once daily during 0 to 28 days and measured on day 28 relative to initial body weight (reference value: 99.8 +.- 1.1%); format: functional; design: scale not given: the % may be the effect or the level left
[2] = test system: Rattus norvegicus; assay: as §1, with “3.7 ug/kg,” for “0.1 mg/kg,”, “daily and co-treated with 0.1 mg/kg, sc liraglutide” for “daily”, “15” for “28”, “98.8 +/- 0.8%)” for “99.8 +.- 1.1%)”; format: functional; design: scale not given: the % may be the effect or the level left
[3] = Solubility in 100 mM bistrispropane buffer at pH 6.5 incubated for 18 hrs by UPLC analysis; format: physicochemical
[4] = Solubility in 100 mM bistrispropane buffer at pH 6.0 incubated for 18 hrs by UPLC analysis; format: physicochemical
[5] = molecular target: T1, Amylin receptor AMY3; CALCR/RAMP3 (Homo sapiens, UniProt O60896+P30988); assay: Displacement of [125I]-labeled rat amylin from human amylin receptor expressed in BHK tkts13 whole cells co-expressing RAMP3 incubated for 60 mins by scintillation proximity assay; format: cell-based
T1 sequence (P30988 whole entry): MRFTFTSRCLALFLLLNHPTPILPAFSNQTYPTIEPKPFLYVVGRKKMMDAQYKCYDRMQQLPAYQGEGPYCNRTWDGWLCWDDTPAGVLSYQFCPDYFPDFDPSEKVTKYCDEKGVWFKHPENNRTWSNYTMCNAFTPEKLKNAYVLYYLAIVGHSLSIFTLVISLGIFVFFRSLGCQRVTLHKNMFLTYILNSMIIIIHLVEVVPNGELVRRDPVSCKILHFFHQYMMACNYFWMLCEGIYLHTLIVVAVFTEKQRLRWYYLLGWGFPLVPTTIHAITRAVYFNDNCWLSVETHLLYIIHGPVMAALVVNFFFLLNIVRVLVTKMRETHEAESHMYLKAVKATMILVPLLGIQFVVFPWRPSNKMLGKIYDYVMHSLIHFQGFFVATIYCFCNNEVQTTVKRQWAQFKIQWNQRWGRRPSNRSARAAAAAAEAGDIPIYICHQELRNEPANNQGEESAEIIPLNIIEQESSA
T1 sequence (O60896 whole entry): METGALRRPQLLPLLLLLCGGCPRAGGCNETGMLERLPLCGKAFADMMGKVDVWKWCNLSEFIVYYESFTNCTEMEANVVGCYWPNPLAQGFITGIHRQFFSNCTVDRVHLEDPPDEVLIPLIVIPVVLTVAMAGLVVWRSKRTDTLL

[6] = molecular target: T1, Amylin receptor AMY3; CALCR/RAMP3; assay: Agonist activity at human amylin receptor expressed in BHK570 cells co-expressing RAMP3 assessed as increase in intracellular cAMP concentration incubated for 3 hrs in absence of albumin by CRE luciferase reporter gene assay; format: functional, cell-based
[7] = test system: Rattus norvegicus; assay: as §1, with “3.7 ug/kg,” for “0.1 mg/kg,”, “daily and co-treated with 0.1 mg/kg, sc liraglutide” for “daily”, “98.8 +/- 0.8%)” for “99.8 +.- 1.1%)”; format: functional; design: scale not given: the % may be the effect or the level left
[8] = Solubility in 100 mM bistrispropane buffer at pH 7.0 incubated for 18 hrs by UPLC analysis; format: physicochemical
[9] = test system: Rattus norvegicus; assay: Reduction in food intake in Sprague-Dawley rat at 3 nmol/kg measured 24 to 48 hrs post dose relative to control; format: functional; design: scale not given: the % may be the effect or the level left
[10] = Solubility in 100 mM glycylglycine buffer at pH 5.0 incubated for 18 hrs by UPLC analysis; format: physicochemical
[11] = test system: Rattus norvegicus; assay: Reduction in food intake in Sprague-Dawley rat at 3 nmol/kg measured 0 to 24 hrs post dose relative to control; format: functional; design: scale not given: the % may be the effect or the level left
[12] = Dose normalized AUC in LYD pig at 1.6 mM, sc co-dosed with 1.6 mM liraglutide by LC-MS analysis; format: ADME, organism-based, Sus scrofa; conditions: in vivo, 1600 µM
[13] = Dose normalized AUC in LYD pig at 1.6 mM, sc co-formulated with 1.6 mM liraglutide by LC-MS analysis; format: ADME, organism-based, Sus scrofa; conditions: in vivo, 1600 µM
[14] = Solubility in 100 mM bistrispropane buffer at pH 8.0 incubated for 18 hrs by UPLC analysis; format: physicochemical
[15] = molecular target: T2, Calcitonin receptor (Homo sapiens, UniProt P30988); assay: Agonist activity at human calcitonin receptor expressed in BHK570 cells assessed as increase in intracellular cAMP concentration incubated for 3 hrs in absence of albumin by CRE luciferase reporter gene assay; format: functional, cell-based
T2 sequence (P30988 whole entry): T1 sequence (P30988 whole entry)

[16] = test system: Rattus norvegicus; assay: Reduction in body weight in Sprague-Dawley rat model of diet-induced obesity assessed as relative body weight at 3.7 ug/kg, sc dosed dosed once daily during 0 to 15 days and measured on day 15 relative to initial body weight (reference value: 98.8 +/- 0.8%); format: functional; design: scale not given: the % may be the effect or the level left
[17] = Half life in LYD pig at 1.6 mM, sc co-formulated with 1.6 mM liraglutide by LC-MS analysis; format: ADME, organism-based, Sus scrofa; conditions: in vivo
[18] = Solubility in 100 mM glycylglycine buffer at pH 4.0 incubated for 18 hrs by UPLC analysis; format: physicochemical
[19] = test system: Rattus norvegicus; assay: Reduction in body weight in Sprague-Dawley rat model of diet-induced obesity assessed as relative body weight at 3.7 ug/kg, sc dosed dosed once daily during 0 to 28 days and measured on day 28 relative to initial body weight (reference value: 99.8 +.- 1.1%); format: functional; design: scale not given: the % may be the effect or the level left
[20] = Solubility in 100 mM glycylglycine buffer at pH 3.0 incubated for 18 hrs by UPLC analysis; format: physicochemical
[21] = Solubility in 100 mM bistrispropane buffer at pH 7.5 incubated for 18 hrs by UPLC analysis; format: physicochemical
[22] = Half life in LYD pig at 1.6 mM, sc co-dosed with 1.6 mM liraglutide by LC-MS analysis; format: ADME, organism-based, Sus scrofa; conditions: in vivo

Q: Which Activity [1] does the source give for `CCCCCCCCCCCCCCCC(=O)N[C@@H](CCC(=O)NCCCC[C@H](NC(=O)[C@H](C)NC(=O)[C@H](C)NC(=O)[C@H](CCC(N)=O)NC(=O)CNC(=O)[C@H](CCC(=O)O)NC(=O)[C@H](CC(C)C)NC(=O)[C@H](Cc1ccc(O)cc1)NC(=O)[C@H](CO)NC(=O)[C@H](CO)NC(=O)[C@@H](NC(=O)[C@H](CC(=O)O)NC(=O)[C@H](CO)NC(=O)[C@@H](NC(=O)[C@H](Cc1ccccc1)NC(=O)[C@@H](NC(=O)CNC(=O)[C@H](CCC(=O)O)NC(=O)[C@H](C)NC(=O)[C@@H](N)Cc1cnc[nH]1)[C@@H](C)O)[C@@H](C)O)C(C)C)C(=O)N[C@@H](CCC(=O)O)C(=O)N[C@@H](Cc1ccccc1)C(=O)N[C@H](C(=O)N[C@@H](C)C(=O)N[C@@H](Cc1c[nH]c2ccccc12)C(=O)N[C@@H](CC(C)C)C(=O)N[C@H](C(=O)N[C@@H](CCCNC(=N)N)C(=O)NCC(=O)N[C@@H](CCCNC(=N)N)C(=O)NCC(=O)O)C(C)C)[C@@H](C)CC)C(=O)O` [LIRAGLUTIDE] here?
A: 93.9%

Q: What does the source list for `CC(C)C[C@H](NC(=O)[C@H](C)NC(=O)[C@H](C)NC(=O)[C@@H](NC(=O)[C@H](CO)NC(=O)[C@H](CC(C)C)NC(=O)[C@H](CCC(=O)O)NC(=O)[C@H](CO)NC(=O)[C@H](C)NC(=O)[C@H](CCC(=O)O)NC(=O)CCCCCCCCCCCCCCCCC(=O)O)[C@@H](C)O)C(=O)NCC(=O)N[C@@H](CCCNC(=N)N)C(=O)N[C@@H](CC(C)C)C(=O)N[C@@H](CO)C(=O)N[C@@H](C)C(=O)N[C@@H](CCC(=O)O)C(=O)N[C@@H](CC(C)C)C(=O)N[C@@H](Cc1cnc[nH]1)C(=O)N[C@@H](CCC(=O)O)C(=O)N[C@@H](CC(C)C)C(=O)N[C@@H](C)C(=O)N[C@H](C(=O)N[C@@H](CC(C)C)C(=O)N1CCC[C@H]1C(=O)N[C@@H](CCCNC(=N)N)C(=O)N[C@H](C(=O)N[C@@H](CCC(=O)O)C(=O)N[C@H](C(=O)NCC(=O)N1CCC[C@H]1C(=O)N[C@@H](CCC(=O)O)C(=O)N[C@@H](CO)C(=O)N1CCC[C@H]1C(N)=O)[C@@H](C)O)[C@@H](C)O)[C@@H](C)O` ({C18 diacid}-EASELSTAALGRLSAELHELATLPRTETGPESP-NH2)?
A: Activity [2]: 93.4%; solubility at 18 h [3]: ≥ 200 µM; solubility at 18 h [4]: ≥ 200 µM; IC50 [5]: 902 pM; EC50 [6]: 8 pM; Activity [7]: 83.2%; solubility at 18 h [8]: ≥ 200 µM; Activity [9]: 60.67%; solubility at 18 h [10]: ≥ 200 µM; Activity [11]: 79%; AUC/dose [12]: 712 kg·h/L; AUC/dose [13]: 732 kg·h/L; solubility at 18 h [14]: ≥ 200 µM; EC50 [15]: 5 pM; Activity [16]: 90.6%; half-life at 1600 µM [17]: 67 h; solubility at 18 h [18]: ≥ 200 µM; Activity [19]: 88.9%; solubility at 18 h [20]: ≥ 200 µM; solubility at 18 h [21]: ≥ 200 µM; half-life at 1600 µM [22]: 67 h
